Each compound was assayed against T1, Human ATX protein (Homo sapiens, UniProt Q13822) (assay: ATX biochemical FRET assay with FS-3 substrate). Conditions: FS-3 substrate 2 μM, ATX 1.0 μg/mL, 30 min preincubation, 2 hours at room temperature.
T1 construct: made in house
Method in brief: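 In-house purified human ATX (1.0 μg/mL final) pre-incubated 30 min at room temperature with compound in Tris buffer pH 7.4 with salts and 1 mg/mL fatty acid-free BSA. FS-3 substrate (2 μM final) then hydrolysed 2 h at room temperature, protected from light; fluorescence read at 485/538 nm.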

IC50 | Structure (SMILES)
≤ 500 nM | O=C(O)C[C@@H]1CCN(Cc2ccc3c(C(F)(F)F)c(O[C@H]4CC[C@@H](C(F)(F)F)CC4)ccc3c2)C1 [Example 71, (S)-1-((5-(trifluoromethyl)-6-((cis)-4-(trifluoromethyl)cyclohexyloxy)naphthalene-2-yl)methyl)pyrrolidine-3-acetic acid]
≤ 500 nM | O=C(O)CCC1CCC(NCc2ccc3c(C(F)(F)F)c(OC4CCC(C(F)(F)F)CC4)ccc3c2)CC1 (stereo not drawn) [Example 73, 3-((4-((5-(trifluoromethyl)-6-(cis-4-(trifluoromethyl)cyclohexyloxy)naphthalene-2-yl)methyl)amino)cyclohexyl)propionic acid]
≤ 250 nM | O=C(O)c1ccc(CNCc2ccc3c(C(F)(F)F)c(O[C@H]4CC[C@@H](C(F)(F)F)CC4)ccc3c2)cn1 [Example 75, 5-((((5-(trifluoromethyl)-6-((cis-4-(trifluoromethyl)cyclohexyl)oxy)-naphthalen-2-yl)methyl)amino)methyl)pyridine-2-carboxylic acid]
≤ 500 nM | CN(Cc1ccc2c(C(F)(F)F)c(O[C@H]3CC[C@@H](C(F)(F)F)CC3)ccc2c1)[C@H]1CC[C@@H](C(=O)O)CC1 [Example 79, N-methyl-cis-4-(((5-(trifluoromethyl)-6-(cis-4-(trifluoromethyl)cyclohexyloxy)naphthalene-2-yl)methyl)amino)cyclohexane-1-carboxylic acid]
≤ 250 nM | O=C(O)C[C@H]1CCCN(Cc2ccc3c(C(F)(F)F)c(O[C@H]4CC[C@@H](C(F)(F)F)CC4)ccc3c2)C1 [Example 80, 2-((R)-1-((2-(cis-4-(trifluoromethyl)cyclohexyloxy)-1-(trifluoromethyl)naphthalen-6-yl)methyl)piperidin-3-yl)acetic acid]
≤ 250 nM | O=C(O)C[C@H]1CN(Cc2ccc3c(C(F)(F)F)c(O[C@H]4CC[C@@H](C(F)(F)F)CC4)ccc3c2)CCO1 [Example 82, 2-((S)-4-((2-(cis-4-(trifluoromethyl)cyclohexyloxy)-1-(trifluoromethyl)naphthalen-6-yl)methyl)morpholin-2-yl)acetic acid]
≤ 500 nM | O=C(O)CCC1CCN(Cc2ccc3c(C(F)(F)F)c(O[C@H]4CC[C@@H](C(F)(F)F)CC4)ccc3c2)CC1 [Example 83, 3-(1-((2-(cis-4-(trifluoromethyl)cyclohexyloxy)-1-(trifluoromethyl)naphthalen-6-yl)methyl)piperidine-4-yl)propionic acid]
≤ 100 nM | CC[C@H]1CC[C@@H](Oc2ccc3cc(CN4CCC[C@H](CC(=O)O)C4)ccc3c2C(F)(F)F)CC1 [Example 84, 2-((R)-1-((2-(cis-4-(ethyl)cyclohexyloxy)-1-(trifluoromethyl)naphthalen-6-yl)methyl)piperidin-3-yl)acetic acid]
≤ 500 nM | CC1(C)C(NCc2ccc3c(C(F)(F)F)c(OC4CCC(C(F)(F)F)CC4)ccc3n2)CC1C(=O)O (stereo not drawn) [Example 87, 2,2-dimethyl-3-((((5-(trifluoromethyl)-6-(cis-4-(trifluoromethyl)cyclo-hexyl)oxy)quinolin-2-yl)methyl)amino)cyclobutanecarboxylic acid]
≤ 100 nM | CCC(c1ccc2c(C(F)(F)F)c(O[C@H]3CC[C@@H](C(F)(F)F)CC3)ccc2c1)N1CCC[C@@H](CC(=O)O)C1 (stereo partly drawn) [Example 89, 2-((S)-1-(1-(2-(cis-4-(trifluoromethyl)cyclohexyloxy)-1-(trifluoromethyl)naphthalen-6-yl)propyl)piperidin-3-yl)acetic acid]
≤ 100 nM | C[C@@H](c1ccc2c(C(F)F)c(O[C@H]3CC[C@@H](C)CC3)ccc2c1)N1CCC[C@H](CC(=O)O)C1 [Example 91, 2-((3R)-1-((S)-1-(6-((cis-4-Methylcyclohexyl)oxy)-5-(difluoromethyl)naphthalen-2-yl)ethyl)piperidin-3-yl)acetic acid]
≤ 100 nM | C[C@H](c1ccc2c(C(F)F)c(O[C@H]3CC[C@@H](C)CC3)ccc2c1)N1CCC[C@H](CC(=O)O)C1 [Example 92, 2-((3R)-1-((R)-1-(6-((cis-4-Methylcyclohexyl)oxy)-5-(difluoromethyl)naphthalen-2-yl)ethyl)piperidin-3-yl)acetic acid]
≤ 100 nM | CC[C@@H](c1ccc2c(C(F)F)c(O[C@H]3CC[C@@H](C)CC3)ccc2c1)N1CCC[C@H](CC(=O)O)C1 [Example 93, 2-((3R)-1-((S)-1-(6-((cis-4-Methylcyclohexyl)oxy)-5-(difluoromethyl)naphthalen-2-yl)propyl)piperidin-3-yl)acetic acid]
≤ 100 nM | CC[C@H](c1ccc2c(C(F)F)c(O[C@H]3CC[C@@H](C)CC3)ccc2c1)N1CCC[C@H](CC(=O)O)C1 [Example 94, 2-((3R)-1-((R)-1-(6-((cis-4-Methylcyclohexyl)oxy)-5-(difluoromethyl)naphthalen-2-yl)propyl)piperidin-3-yl)acetic acid]
≤ 100 nM | C[C@@H](c1ccc2c(C(F)(F)F)c(O[C@H]3CC[C@@H](C)CC3)ccc2c1)N1CCC[C@H](CC(=O)O)C1 [Example 95, 2-((3R)-1-((S)-1-(6-((cis-4-Methylcyclohexyl)oxy)-5-(trifluoromethyl)naphthalen-2-yl)ethyl)piperidin-3-yl)acetic acid]
≤ 100 nM | C[C@H](c1ccc2c(C(F)(F)F)c(O[C@H]3CC[C@@H](C)CC3)ccc2c1)N1CCC[C@H](CC(=O)O)C1 [Example 96, 2-((3R)-1-((R)-1-(6-((cis-4-Methylcyclohexyl)oxy)-5-(trifluoromethyl)naphthalen-2-yl)ethyl)piperidin-3-yl)acetic acid]
≤ 100 nM | C[C@H]1CC[C@@H](Oc2ccc3cc(CN4CC(CC(=O)O)C4)ccc3c2C(F)F)CC1 [Example 97, 1-((5-(Difluoromethyl)-6-((cis-4-methylcyclohexyl)oxy)naphthalen-2-yl)methyl)azetidine-3-acetic acid]
≤ 100 nM | C[C@@H](c1ccc2c(C(F)F)c(O[C@H]3CC[C@@H](C)CC3)ccc2c1)N1CCC[C@@H](CC(=O)O)C1 [Example 100, 2-((S)-1-((S)-1-(2-(cis-4-methylcyclohexyloxy)-1-(difluoromethyl)naphthalen-6-yl)ethyl)piperidin-3-yl)acetic acid]
